This assay deals with Male Wistar rats. As to the kind of experiment: p-PCA-induced ejaculation in anesthetized rats (ejaculation-delaying effect). The format is in vivo, rat. Conditions: for Ratio: Number of responding animals/total animal number: 50 mg/kg oral in 1% HPMC, p-PCA 5 mg/kg i.p. 80 min later, observed 30 min; for Latency: Time to display the ejaculatory response: 50 mg/kg oral, p-PCA 5 mg/kg i.p., mean ± standard deviation of responding rats. Here is the method:
The compounds prepared in the above examples were evaluated to determine whether they have an effect of delaying ejaculation. The evaluation was carried out using an animal model according to a method described in Yonezawa et al., Life Sci. 2000, 67(25) p 3031-9. Male Wistar rats weighing 240-260 g were used. Each compound was suspended in 1% HPMC, and then administered orally to each animal. After 60 min, the animals were anesthetized and fixed. 20 min later, para-chloroamphetamine (p-PCA) was intraperitoneally administered in a dose of 5 mg/kg in order to induce ejaculation. […] An ejaculatory response was considered to be elicited when rhythmic contraction of bulbocavernosus muscles and semen discharge occurs. Six or more animals were used for each compound. A Fisher's […] test was performed for the comparison of the proportion of responding rats (ejaculated rats) to determine significance of difference between a treatment group and a vehicle control. The time to reach ejaculation was expressed as mean±standard deviation.
Each test compound was administered at a dose of 50 mg/kg. Ejaculation was elicited in all seven animals of a control group.

For the molecule `CN(C)CCCC1(c2ccccc2)OCc2cc(C#N)ccc21.Cl` (stereo not drawn) [Ex. 13, 1-{3-(dimethylamino)propyl}-1-phenyl-1,3-dihydro-5-isobenzofurancarbonitrile hydrochloride], the “Ratio: Number of responding animals/total animal number” value is on record as 1/6 and the “Latency: Time to display the ejaculatory response” value (“Latency: Time” for short) amounted to 327 s.

As to `Cl.N#Cc1ccc2c(c1)COC2(CCCn1ccnc1)c1ccc(Cl)cc1` (stereo not drawn) [Ex. 62, 1-(4-chlorophenyl)-1-{3-(imidazole-1-yl)propyl}-1,3-dihydro-5-isobenzofurancarbonitrile hydrochloride], the “Ratio: Number of responding animals/total animal number” value is recorded as 4/7 and the “Latency: Time” value came out at 888 ± 284 s.

Turning to `Cc1ccc(C2(CCCn3cccn3)OCc3cc(C#N)ccc32)cc1` (stereo not drawn) [Ex. 30, 1-{3-(pyrazole-1-yl)propyl}-1-(4-tolyl)-1,3-dihydro-5-isobenzofurancarbonitrile], the “Ratio: Number of responding animals/total animal number” value is listed as 3/7 and the “Latency: Time” value was determined as 876 ± 300 s.

On to `N#Cc1ccc2c(c1)COC2(CCn1cccn1)c1cccs1` (stereo not drawn) [Ex. 51, 1-{2-(pyrazole-1-yl)ethyl}-1-(2-thienyl)-1,3-dihydro-5-isobenzofurancarbonitrile], for which the “Ratio: Number of responding animals/total animal number” value is 4/7 and the “Latency: Time” value was 1042 ± 451 s.

For the molecule `N#Cc1ccc2c(c1)COC2(CCn1ccnc1)c1cccs1` (stereo not drawn) [Ex. 47, 1-{2-(imidazole-1-yl)ethyl}-1-(2-thienyl)-1,3-dihydro-5-isobenzofurancarbonitrile], the “Ratio: Number of responding animals/total animal number” value is on record as 4/7 and the “Latency: Time” value was 814 ± 278 s.

Regarding `N#Cc1ccc2c(c1)COC2(CCCn1ccnc1)c1ccccc1` (stereo not drawn) [Ex. 16, 1-{3-(imidazole-1-yl)propyl}-1-phenyl-1,3-dihydro-5-isobenzofurancarbonitrile], the “Ratio: Number of responding animals/total animal number” value is on record as 4/9 and the “Latency: Time” value amounted to 856 ± 365 s.

`Cl.N#Cc1ccc2c(c1)COC2(CCn1ccnc1)c1ccc(Cl)cc1` (stereo not drawn) [Ex. 64, 1-(4-chlorophenyl)-1-{2-(imidazole-1-yl)ethyl}-1,3-dihydro-5-isobenzofurancarbonitrile hydrochloride]: the “Ratio: Number of responding animals/total animal number” value is listed as 4/7 and the “Latency: Time” value was 1032 ± 299 s.

Consider `COc1ccc(C2(CCn3ccnc3)OCc3cc(C#N)ccc32)cc1` (stereo not drawn) [Ex. 6, 1-{2-(imidazole-1-yl)ethyl}-1-(4-methoxyphenyl)-1,3-dihydro-5-isobenzofurancarbonitrile], for which the “Ratio: Number of responding animals/total animal number” value is reported as 4/7 and the “Latency: Time” value was 889 ± 284 s.

As for `Cl.N#Cc1ccc2c(c1)COC2(CCn1ccnc1)c1ccccc1` (stereo not drawn) [Ex. 19, 1-{2-(imidazole-1-yl)ethyl}-1-phenyl-1,3-dihydro-5-isobenzofurancarbonitrile hydrochloride], the “Ratio: Number of responding animals/total animal number” value is 5/9 and the “Latency: Time” value was found to be 954 ± 275 s.

`CN(C)CCCC1(c2ccc(N(C)C)cc2)OCc2cc(C#N)ccc21.Cl` (stereo not drawn) [Ex. 36, 1-(4-dimethylaminophenyl)-1-{3-(dimethylamino)propyl}-1,3-dihydro-5-isobenzofurancarbonitrile hydrochloride]: the “Ratio: Number of responding animals/total animal number” value was 2/6 and the “Latency: Time” value was found to be 554 ± 77 s.

Turning to `Cc1ccc(C2(CCCN(C)C)OCc3cc(C#N)ccc32)cc1.Cl` (stereo not drawn) [Ex. 23, 1-{3-(dimethylamino)propyl}-1-(4-tolyl)-1,3-dihydro-5-isobenzofurancarbonitrile hydrochloride], the “Ratio: Number of responding animals/total animal number” value was 4/7 and the “Latency: Time” value was 967 ± 274 s.

Regarding `Cl.N#Cc1ccc2c(c1)COC2(CCn1cccn1)c1cccs1` (stereo not drawn) [Ex. 52, 1-{2-(pyrazole-1-yl)ethyl}-1-(2-thienyl)-1,3-dihydro-5-isobenzofurancarbonitrile hydrochloride], the “Ratio: Number of responding animals/total animal number” value was 3/7 and the “Latency: Time” value came out at 869 ± 274 s.

As for `N#Cc1ccc2c(c1)COC2(CCn1cccn1)c1ccc(Cl)cc1` (stereo not drawn) [Ex. 67, 1-(4-chlorophenyl)-1-{2-(pyrazole-1-yl)ethyl}-1,3-dihydro-5-isobenzofurancarbonitrile], the “Ratio: Number of responding animals/total animal number” value is reported as 3/7 and the “Latency: Time” value turned out to be 853 ± 352 s.

Consider `Cl.N#Cc1ccc2c(c1)COC2(CCCn1ccnc1)c1ccc(F)cc1` (stereo not drawn) [Ex. 54, 1-(4-fluorophenyl)-1-{3-(imidazole-1-yl)propyl}-1,3-dihydro-5-isobenzofurancarbonitrile hydrochloride], for which the “Ratio: Number of responding animals/total animal number” value is given as 5/9 and the “Latency: Time” value is 1247 ± 352 s.

Turning to `CN(C)CCC1(c2cccs2)OCc2cc(C#N)ccc21.Cl` (stereo not drawn) [Ex. 43, 1-{2-(dimethylamino)ethyl}-1-(2-thienyl)-1,3-dihydro-5-isobenzofurancarbonitrile hydrochloride], the “Ratio: Number of responding animals/total animal number” value was 3/7 and the “Latency: Time” value is 888 ± 275 s.

Turning to `Cl.N#Cc1ccc2c(c1)COC2(CCCn1cccn1)c1ccc(F)cc1` (stereo not drawn) [Ex. 58, 1-(4-fluorophenyl)-1-{3-(pyrazole-1-yl)propyl}-1,3-dihydro-5-isobenzofurancarbonitrile hydrochloride], the “Ratio: Number of responding animals/total animal number” value is reported as 4/9 and the “Latency: Time” value is 850 ± 362 s.

Turning to `Cl.N#Cc1ccc2c(c1)COC2(CCCn1cccn1)c1cccs1` (stereo not drawn) [Ex. 50, 1-{3-(pyrazole-1-yl)propyl}-1-(2-thienyl)-1,3-dihydro-5-isobenzofurancarbonitrile hydrochloride], the “Ratio: Number of responding animals/total animal number” value was 3/7 and the “Latency: Time” value is 979 ± 347 s.

Regarding `Cl.N#Cc1ccc2c(c1)COC2(CCCn1ccnc1)c1ccccc1` (stereo not drawn) [Ex. 17, 1-{3-(imidazole-1-yl)propyl}-1-phenyl-1,3-dihydro-5-isobenzofurancarbonitrile hydrochloride], the “Ratio: Number of responding animals/total animal number” value is given as 3/6 and the “Latency: Time” value was 949 ± 330 s.

`N#Cc1ccc2c(c1)COC2(CCn1ccnc1)c1ccc(Cl)cc1` (stereo not drawn) [Ex. 63, 1-(4-chlorophenyl)-1-{2-(imidazole-1-yl)ethyl}-1,3-dihydro-5-isobenzofurancarbonitrile]: the “Ratio: Number of responding animals/total animal number” value is reported as 3/7 and the “Latency: Time” value was 904 ± 307 s.

`CN(C)CCCC1(c2ccccc2)OCc2cc(C#N)ccc21` (stereo not drawn) [Ex. 12, 1-{3-(dimethylamino)propyl}-1-phenyl-1,3-dihydro-5-isobenzofurancarbonitrile]: the “Ratio: Number of responding animals/total animal number” value is recorded as 4/9 and the “Latency: Time” value was determined as 1025 ± 189 s.

With `Cc1ccc(C2(CCn3cccn3)OCc3cc(C#N)ccc32)cc1.Cl` (stereo not drawn) [Ex. 33, 1-{2-(pyrazole-1-yl)ethyl}-1-(4-tolyl)-1,3-dihydro-5-isobenzofurancarbonitrile hydrochloride], the “Ratio: Number of responding animals/total animal number” value is 3/7 and the “Latency: Time” value worked out at 698 ± 374 s.

Turning to `Cl.N#Cc1ccc2c(c1)COC2(CCn1ccnc1)c1ccc(F)cc1` (stereo not drawn) [Ex. 56, 1-(4-fluorophenyl)-1-{2-(imidazole-1-yl)ethyl}-1,3-dihydro-5-isobenzofurancarbonitrile hydrochloride], the “Ratio: Number of responding animals/total animal number” value was 2/6 and the “Latency: Time” value amounted to 606 ± 130 s.

For `COc1ccc(C2(CCCn3ccnc3)OCc3cc(C#N)ccc32)cc1` (stereo not drawn) [Ex. 4, 1-{3-(imidazole-1-yl)propyl}-1-(4-methoxyphenyl)-1,3-dihydro-5-isobenzofurancarbonitrile], the “Ratio: Number of responding animals/total animal number” value is 4/9 and the “Latency: Time” value was 1300 ± 124 s.

On to `COc1ccc(C2(CCCN(C)C)OCc3cc(C#N)ccc32)cc1` (stereo not drawn) [Ex. 1, 1-(4-methoxyphenyl)-1-{3-(dimethylamino)propyl}-1,3-dihydro-5-isobenzofurancarbonitrile], for which the “Ratio: Number of responding animals/total animal number” value was 5/9 and the “Latency: Time” value is 1024 ± 256 s.

Regarding `N#Cc1ccc2c(c1)COC2(CCn1ccnc1)c1ccc(F)cc1` (stereo not drawn) [Ex. 55, 1-(4-fluorophenyl)-1-{2-(imidazole-1-yl)ethyl}-1,3-dihydro-5-isobenzofurancarbonitrile], the “Ratio: Number of responding animals/total animal number” value is on record as 4/7 and the “Latency: Time” value came to 1450 ± 671 s.

As to `N#Cc1ccc2c(c1)COC2(CCCn1cccn1)c1ccc(Cl)cc1` (stereo not drawn) [Ex. 65, 1-(4-chlorophenyl)-1-{3-(pyrazole-1-yl)propyl}-1,3-dihydro-5-isobenzofurancarbonitrile], the “Ratio: Number of responding animals/total animal number” value is given as 5/9 and the “Latency: Time” value is 801 ± 401 s.

For `COc1ccc(C2(CCCN(C)C)OCc3cc(C#N)ccc32)cc1.Cl` (stereo not drawn) [Ex. 3, 1-{3-(dimethylamino)propyl}-1-(4-methoxyphenyl)-1,3-dihydro-5-isobenzofurancarbonitrile hydrochloride], the “Ratio: Number of responding animals/total animal number” value was 1/6 and the “Latency: Time” value was 1234 s.
